Reference: patent US5178662A, “Benzaldehyde acetal compounds, preparation process thereof, and herbicidal compositions containing the same as active ingredients” (Mitsui Toatsu Chemicals, Inc., priority 1990, dated 1993)

system: Soybean (Glycine max); test: Upland soil application test, crop injury soybean; assay type: in vivo; conditions: soil application one day after seeding, 50 g ai/a, wettable powder, fresh weight on 50th day after spray
Procedure: (§1) Resin-made 1/1000-are pots were filled with the soil of an upland field. After they were fertilized, cotton and soybean were seeded and 3 cm soil covering was applied. In addition, amaranth, common lambs-quarters, barnyardgrass, green foxtail, large crabgrass and johnsongrass were seeded and 1 cm soil covering was applied. One day later, a wettable powder prepared from a predetermined amount of each test compound in a similar manner to the procedures described in Formulation Example 1 was diluted with water and then sprayed evenly at an application rate equal to 10 l per are onto the surface of the soil by means of a pressure-operated sprayer. The weeds and crops were allowed to grow in a green house and influence to them were observed on the 50th day after the spray. The degree of damages of each test plant and the degree of injury to each crop were determined by measuring fresh weight in each group and indicated by % calculated according to the following formula. [formula]

Structure (SMILES) | Crop injury Soybean (Glycine max) [%]
CCCCCOC(OCCCCC)c1ccccc1Oc1nc(OC)cc(OC)n1 [Compound No. 4] | 0

system: Foxtail (Setaria viridis); test: Upland soil application test, green foxtail; assay type: in vivo; conditions: 1200 h, soil application one day after seeding, 50 g ai/a, wettable powder, fresh weight on 50th day after spray, read-out: Herbicidal effects Foxtail (Setaria viridis)
Procedure: as §1

Structure (SMILES) | pest or weed control at 5000 g/ha [%]
CCCCCOC(OCCCCC)c1ccccc1Oc1nc(OC)cc(OC)n1 [Compound No. 4] | 100

system: common lambsquarters; test: Upland foliar application test, common lambsquarters; assay type: in vivo; conditions: Chenopodium album, 960 h; foliar application at stage of 2-3 leaves, 50 g ai/a, emulsion, 40th day after spray; read-out: Herbicidal effects Common lambquarters
Procedure: (§2) Resin-made 1/1000-are pots were filled with the soil of an upland field. After they were fertilized, cotton and soybean were seeded and 3 cm soil covering was applied. Five days later, amaranth, common lambsquarters, barnyardgrass, green foxtail, large crabgrass and johnsongrass were seeded and 1 cm soil covering was applied. They were allowed to grow in a green house. When each plant grew to the stage of 2-3 leaves, an emulsion formulated from a predetermined amount of each test compound in a similar manner to the procedures described in Formulation Example 11 was diluted with water and then sprayed at a predetermined application rate by means of a pressure-operated sprayer. The application rate was controlled at 5 l per are. Influence to the crops and weeds were observed on the 40th day after the spray of the herbicides. The results are shown in Table 4 in which the degree of damages of each test plant and the degree of injury to each crop are shown in a similar manner to Test 2.

Structure (SMILES) | pest or weed control at 5000 g/ha [%]
CCCCCOC(OCCCCC)c1ccccc1Oc1nc(OC)cc(OC)n1 [Compound No. 4] | 100

system: johnsongrass emerging from rhizome; test: Application test on johnsongrass emerging from rhizome; assay type: in vivo; conditions: foliar application at stage of 4-5 leaves, application rate of active ingredient 20 (unit not given), emulsion, 50th day after spray
Procedure: as §1
Resin-made 1/1000-are pots were filled with the soil of an upland field. After they were fertilized, rhizome of johnsongrass were transplanted to the pots and 3 cm soil covering was applied. They were allowed to grow in a green house. When each johnsongrass grew to the stage of 4-5 leaves, an emulsion formulated from a predetermined amount of each test compound in a similar manner to the procedures described in Formulation Example 11 was diluted with water and then sprayed at a predetermined application rate by means of a pressure-operated sprayer. The application rate was controlled at 5 l per are. The effect of each compound against the johnsongrass emerging from its rhizome was observed on the 50th day after the spray of the herbicides. The results are shown in Table 5 in which the herbicidal effect against johnsongrass is shown in a similar manner to Test 2.

Structure (SMILES) | Herbicidal effect against johnsongrass emerging from rhizome [%]
CCCCCOC(OCCCCC)c1ccccc1Oc1nc(OC)cc(OC)n1 [Compound No. 4] | 100

system: Crabgrass (Digitaria adscendens); test: Upland soil application test, large crabgrass; assay type: in vivo; conditions: 1200 h, soil application one day after seeding, 50 g ai/a, wettable powder, fresh weight on 50th day after spray, read-out: Herbicidal effects Crabgrass (Digitaria adscendens)
Procedure: as §1

Structure (SMILES) | pest or weed control at 5000 g/ha [%]
CCCCCOC(OCCCCC)c1ccccc1Oc1nc(OC)cc(OC)n1 [Compound No. 4] | 100

system: Amaranth (Amaranthus viridis); test: Upland foliar application test, amaranth; assay type: in vivo; conditions: 960 h, foliar application at stage of 2-3 leaves, 50 g ai/a, emulsion, 40th day after spray, read-out: Herbicidal effects Amaranth (Amaranthus viridis)
Procedure: as §1, §2

Structure (SMILES) | pest or weed control at 5000 g/ha [%]
CCCCCOC(OCCCCC)c1ccccc1Oc1nc(OC)cc(OC)n1 [Compound No. 4] | 100

system: Cotton (Gossypium indicum); test: Upland soil application test, crop injury cotton; assay type: in vivo; conditions: soil application one day after seeding, 50 g ai/a, wettable powder, fresh weight on 50th day after spray
Procedure: as §1

Structure (SMILES) | Crop injury Cotton (Gossypium indicum) [%]
CCCCCOC(OCCCCC)c1ccccc1Oc1nc(OC)cc(OC)n1 [Compound No. 4] | 0

system: ALS (acetolactate syntase) from barnyardgrass seedlings; test: ALS (acetolactate syntase) inhibition test, barnyardgrass enzyme; assay type: biochemical; conditions: 10,000 ppm (0.5 μg/0.5 ml) of compound; 1 hour at 30° C.; absorbance at 525 nm
Procedure: (§3) To determine the selectivity in enzyme level between crops and weeds, an ALS inhibition test was conducted using pea as a typical broadleaf crop and barnyardgrass as a representative gramineous weeds.
(§4) After seeds of pea and barnyardgrass were allowed to germinate at 25° C. for 8-14 days in a dark place, partially-purified suspensions (Suspensions A) of acetolactate syntase were separately obtained from the seedlings in accordance with the procedures described in the literature, Plant Physiology, 75, 827-831. In a test tube, 0.5 mg of one of test compounds was weighed, followed by the addition of 0.15 ml of a 20 mM K2 HPO4 solution and 0.25 ml of a reaction substrate medium which consisted of 40 mM of K2 HPO4, 40 mM of sodium pyruvate, 1 mM of TPP, 1 mM of MgCl2 and 20 μM of FAD so that 0.4 ml of a reaction solution (Solution B) was prepared. Added to 0.4 ml of Solution B was 0.1 ml of Suspension A. After the resultant mixture was shaken for 1 hour in a thermostat water bath controlled at 30° C., 50 μl of 6N sulfuric acid were added to terminate the reaction.
(§5) Next, the test tube with the reaction-terminated liquid mixture contained therein was transferred into a thermostat water bath controlled at 60° C. and was heated for 15 minutes. Thereafter, 0.5 ml of a 0.5% creatine solution and 0.5 ml of a 5% alkaline α-naphthol solution were added, and the resultant mixture was maintained at 60° C. for 15 minutes. As a result, the test solution developed a pink-to-red color. After the above operation, the absorbance of the test solution at 525 nm was measured by a spectrophotometer (Absorbance 1 of Test Compound).
(§6) Further, the absorbance (Absorbance 2 of Blank) of a solution obtained by subjecting a portion of Solution B to the above procedures without addition of any test compound and the absorbance (Absorbance 3 of sulfuric acid) of another solution obtained by subjecting another portion of Solution B to the above procedures which using 50 μl of 6N sulfuric acid as a test compound were also measured.

Structure (SMILES) | Enzymoreaction inhibition rate (%) Barnyardgrass [%]
CCCCCOC(OCCCCC)c1ccccc1Oc1nc(OC)cc(OC)n1 [Compound No. 4] | 100

system: Barnyardgrass (Echinochloa crusgalli); test: Upland foliar application test, barnyardgrass; assay type: in vivo; conditions: Echinochloa crus-galli, 960 h; foliar application at stage of 2-3 leaves, 50 g ai/a, emulsion, 40th day after spray; read-out: Herbicidal effects Barnyardgrass (Echinochloa crusgalli)
Procedure: as §2

Structure (SMILES) | pest or weed control at 5000 g/ha [%]
CCCCCOC(OCCCCC)c1ccccc1Oc1nc(OC)cc(OC)n1 [Compound No. 4] | 100

system: ALS (acetolactate syntase) from pea seedlings; test: ALS (acetolactate syntase) inhibition test, pea enzyme; assay type: biochemical; conditions: 10,000 ppm (0.5 μg/0.5 ml) of compound; 1 hour at 30° C.; absorbance at 525 nm
Procedure: as §3, §4, §5, §6

Structure (SMILES) | Enzymoreaction inhibition rate (%) Pea [%]
CCCCCOC(OCCCCC)c1ccccc1Oc1nc(OC)cc(OC)n1 [Compound No. 4] | 0

system: Johnsongrass; test: Upland foliar application test, johnsongrass; assay type: in vivo; conditions: Sorghum halepense, 960 h; foliar application at stage of 2-3 leaves, 50 g ai/a, emulsion, 40th day after spray; read-out: Herbicidal effects Johnsongrass
Procedure: as §2

Structure (SMILES) | pest or weed control at 5000 g/ha [%]
CCCCCOC(OCCCCC)c1ccccc1Oc1nc(OC)cc(OC)n1 [Compound No. 4] | 100

system: common lambsquarters; test: Upland soil application test, common lambsquarters; assay type: in vivo; conditions: Chenopodium album, 1200 h; soil application one day after seeding, 50 g ai/a, wettable powder, fresh weight on 50th day after spray; read-out: Herbicidal effects Common lambquarters
Procedure: as §1

Structure (SMILES) | pest or weed control at 5000 g/ha [%]
CCCCCOC(OCCCCC)c1ccccc1Oc1nc(OC)cc(OC)n1 [Compound No. 4] | 100

system: Soybean (Glycine max); test: Upland foliar application test, crop injury soybean; assay type: in vivo; conditions: foliar application at stage of 2-3 leaves, 50 g ai/a, emulsion, 40th day after spray
Procedure: as §2

Structure (SMILES) | Crop injury Soybean (Glycine max) [%]
CCCCCOC(OCCCCC)c1ccccc1Oc1nc(OC)cc(OC)n1 [Compound No. 4] | 0

system: Foxtail (Setaria viridis); test: Upland foliar application test, green foxtail; assay type: in vivo; conditions: 960 h, foliar application at stage of 2-3 leaves, 50 g ai/a, emulsion, 40th day after spray, read-out: Herbicidal effects Foxtail (Setaria viridis)
Procedure: as §1, §2

Structure (SMILES) | pest or weed control at 5000 g/ha [%]
CCCCCOC(OCCCCC)c1ccccc1Oc1nc(OC)cc(OC)n1 [Compound No. 4] | 100

system: Barnyardgrass (Echinochloa crusgalli); test: Upland soil application test, barnyardgrass; assay type: in vivo; conditions: Echinochloa crus-galli, 1200 h; soil application one day after seeding, 50 g ai/a, wettable powder, fresh weight on 50th day after spray; read-out: Herbicidal effects Barnyardgrass (Echinochloa crusgalli)
Procedure: as §1

Structure (SMILES) | pest or weed control at 5000 g/ha [%]
CCCCCOC(OCCCCC)c1ccccc1Oc1nc(OC)cc(OC)n1 [Compound No. 4] | 100

system: Crabgrass (Digitaria adscendens); test: Upland foliar application test, large crabgrass; assay type: in vivo; conditions: 960 h, foliar application at stage of 2-3 leaves, 50 g ai/a, emulsion, 40th day after spray, read-out: Herbicidal effects Crabgrass (Digitaria adscendens)
Procedure: as §1, §2

Structure (SMILES) | pest or weed control at 5000 g/ha [%]
CCCCCOC(OCCCCC)c1ccccc1Oc1nc(OC)cc(OC)n1 [Compound No. 4] | 100

system: Johnsongrass; test: Upland soil application test, johnsongrass; assay type: in vivo; conditions: Sorghum halepense, 1200 h; soil application one day after seeding, 50 g ai/a, wettable powder, fresh weight on 50th day after spray; read-out: Herbicidal effects Johnsongrass
Procedure: as §1

Structure (SMILES) | pest or weed control at 5000 g/ha [%]
CCCCCOC(OCCCCC)c1ccccc1Oc1nc(OC)cc(OC)n1 [Compound No. 4] | 100

system: Cotton (Gossypium indicum); test: Upland foliar application test, crop injury cotton; assay type: in vivo; conditions: foliar application at stage of 2-3 leaves, 50 g ai/a, emulsion, 40th day after spray
Procedure: as §1, §2

Structure (SMILES) | Crop injury Cotton (Gossypium indicum) [%]
CCCCCOC(OCCCCC)c1ccccc1Oc1nc(OC)cc(OC)n1 [Compound No. 4] | 0

system: Amaranth (Amaranthus viridis); test: Upland soil application test, amaranth; assay type: in vivo; conditions: 1200 h, soil application one day after seeding, 50 g ai/a, wettable powder, fresh weight on 50th day after spray, read-out: Herbicidal effects Amaranth (Amaranthus viridis)
Procedure: as §1

Structure (SMILES) | pest or weed control at 5000 g/ha [%]
CCCCCOC(OCCCCC)c1ccccc1Oc1nc(OC)cc(OC)n1 [Compound No. 4] | 100
